This is an account of results in patent US20200268768A1, “CENICRIVIROC COMBINATION THERAPY FOR THE TREATMENT OF FIBROSIS” (Tobira Therapeutics, Inc., priority 2015, published 2020).

Data set [1] can be described thus: Tissue distribution in rodents. It counts as in vivo. An excerpt: Infiltration of various immune cell populations, resulting in inflammation, is a central pathogenic feature following acute- and chronic liver injury. Chronic liver inflammation leads to continuous hepatocyte injury which can lead to fibrosis, cirrhosis, ESLD, and HCC. Interactions between intra-hepatic immune cells lead to increased activation and migration of Kupffer cells and HSCs and are critical events for developing liver fibrosis. Additionally, there is increasing evidence of the role of CCR2 and CCR5 in the pathogenesis of liver fibrosis. These members of the C-C chemokine family are expressed by pro-fibrogenic cells including pro-inflammatory monocytes and macrophages, Kupffer cells, and HSCs. CCR2 signaling plays an important role in the pathogenesis of renal fibrosis through regulation of bone marrow-derived fibroblasts. CCR2- and CCR5-positive monocytes as well as CCR5-positive T lymphocytes are attracted by locally released MCP-1 and RANTES, and can contribute to chronic interstitial inflammation in the kidney. […] Disruption of the intestinal microbiota and its downstream effects on the gut-liver axis both play an important role in metabolic disorders such as obesity, non-alcoholic fatty liver disease (NAFLD) and non-alcoholic steatohepatitis (NASH).

Data set [2] has as its system mouse UUO model of renal fibrosis. The data set can be described thus: Mouse unilateral ureter occlusion (UUO) model of renal fibrosis. Type of data set: in vivo, CD-1 mice. Particulars: for Reduction of UUO-induced increase in composite Collagen Volume Fraction (CVF): ±SEM. Here is the method: Test animals were allocated to weight-matched treatment groups on the day prior to the surgical procedure (Day −1). Male CD-1 mice (N=51; age, 7-8 weeks) underwent either sham surgery or total ligation of the right ureter, i.e. UUO, via aseptic laparotomy (FIG. 5). […] Another group received the anti-transforming growth factor TGF-β1 antibody, compound 1D11 (positive control) at 3 mg/kg/day from Days −1 to 4, injected intraperitoneally once daily, and vehicle control from Days 0 to 5. […] On Day 5, animals were anaesthetised, blood and tissues were collected prior to sacrifice.
Study endpoints included: a) body and kidney weights; b) fibrosis in obstructed kidney evaluated via histological quantitative image analysis of picrosirius red staining (ten images/depth/kidney obtained and assessed in a blinded fashion using light microscopy [at 200×] to enable sampling of 60-70% of the renal cortical area) and quantified by a composite Collagen Volume Fraction (CVF [% total area imaged]) score expressed as the average positive stain across three anatomically distinct (200-250 μM apart) tissue sections, or depths, from the obstructed kidney; c) hydroxyproline content of frozen renal cortical tissue biopsies as assessed by biochemical analyses; d) mRNA expression of profibrotic and inflammatory biomarkers (including MCP-1, Collagen 1a1, Collagen 3α1, TGF-β31, Fibronectin-1, α-smooth muscle actin (α-SMA) and connective tissue growth factor-1 (CTGF-1); assessed via Luminex® (Life Technologies™, Carlsbad, Calif., USA) assay with relative expression normalised to HPRT (hypoxanthine phosphoribosyltransferase).
Data are expressed as mean±standard error of mean (SEM). Statistical analyses were performed using GraphPad Prism® (GraphPad Software, Inc., San Diego, Calif., USA). Treatment differences between sham-surgery+vehiclecontrol and UUO+vehicle-control groups, and between UUO+vehicle-control and UUO+compound-1D11 (positive control) groups, were analysed by unpaired t-Test. Treatment differences between UUO+vehicle-control and CVC-dose groups were analysed by one-way ANOVA (analysis of variance) with Dunnett's test (post-hoc).

In a further data set the target is CCR2 (Homo sapiens, UniProt P41597). The data set is described as follows: CCR2 antagonism in in vitro, ex vivo and clinical studies. The following applies: Studies 652-2-201 and 652-2-202. The source says:
Clinical evidence of CCR2 and CCR5 antagonism was established by measuring changes from baseline in plasma MCP-1 (a ligand of CCR2) concentrations and changes in plasma HIV-RNA (CCR5 co-receptor required for HIV entry), respectively, in these 2 Phase 2 Studies.

Data set [3] can be described thus: CVC plasma exposures in clinical studies. Particulars: same dosing conditions; Studies 652-1-111, 652-1-110, 652-2-202. Type of data set: in vivo, human.
Setting [4] is: CVC 7 and 20 mg/kg/day, compound 1D11 3 mg/kg/day, versus UUO+vehicle-control.

CCR2, sequence (P41597 whole entry): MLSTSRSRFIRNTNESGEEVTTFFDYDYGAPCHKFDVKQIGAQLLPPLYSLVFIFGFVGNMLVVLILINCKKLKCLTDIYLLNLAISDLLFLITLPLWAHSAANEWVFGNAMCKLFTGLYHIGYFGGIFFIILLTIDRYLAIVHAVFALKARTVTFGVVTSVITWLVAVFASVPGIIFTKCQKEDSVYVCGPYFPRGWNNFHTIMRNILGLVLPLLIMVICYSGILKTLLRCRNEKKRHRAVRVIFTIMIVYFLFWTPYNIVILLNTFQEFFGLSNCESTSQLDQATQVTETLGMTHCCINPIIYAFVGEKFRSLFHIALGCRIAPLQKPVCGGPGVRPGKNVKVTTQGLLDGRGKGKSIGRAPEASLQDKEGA

As for `CCCCOCCOc1ccc(-c2ccc3c(c2)C=C(C(=O)Nc2ccc([S@@+]([O-])Cc4cncn4CCC)cc2)CCCN3CC(C)C)cc1` [CVC, (S)-8-[4-(2-Butoxyethoxy)phenyl]-1-isobutyl-N-(4-{[(1-propyl-1H-imidazol-5-yl)methyl]sulfinyl}phenyl)-1,2,3,4-tetrahydro-1-benzazocine-5-carboxamide], in data set [1], the Tissue distribution entry was “high distribution in the liver, mesenteric lymph node, and intestine”. Further, the “Reduction of UUO-induced increase in composite Collagen Volume Fraction (CVF)” value in data set [2] (CVC 7 mg/kg/day oral, Day 5) was 28.6±8.8%. Further, the “Reduction of UUO-induced increase in composite Collagen Volume Fraction (CVF)” value in data set [2] (CVC 20 mg/kg/day oral, Day 5, one outlier excluded) came to 31.8±6.8%. Moreover, the “Tolerability after UUO surgery” value in data set [2] (CVC 100 mg/kg/day group (N=9)) is “terminated early due to moribundity”. Besides, the “Effect on obstructed kidney hydroxyproline content” value in data set [2] (CVC 7 and 20 mg/kg/day, Day 5) is “Neither dose of CVC tested affected UUO-induced increases in obstructed kidney hydroxyproline content”. In addition, in data set [2] (setting [4]), the “Collagen 1a1, Collagen 3α1, TGF-β1 and Fibronectin-1 mRNA expression in obstructed kidney” value was “these reductions, compared with the UUO+vehicle-control group, did not reach statistical significance”; the “Obstructed kidney cortical MCP-1, α-SMA and CTGF-1 mRNA expression” value is given as “did not have significant effects”. Moreover, the “Effect on body weight relative to UUO+vehicle-control” value in data set [2] (Day 5, CVC 7 mg/kg/day oral, compound 1D11 3 mg/kg/day i.p.) is recorded as “no effect on body weight”. In data set [2] (Day 5, CVC 20 mg/kg/day oral), the “Decrease in body weight relative to UUO+vehicle-control” value is on record as 5%. Moreover, the “Obstructed or contralateral kidney weight or kidney weight index versus UUO+vehicle-control” value in data set [2] (Day 5, CVC 7 and 20 mg/kg/day, compound 1D11 3 mg/kg/day) is “No significant treatment effects”. Besides, on CCR2, the “Antagonism of CCR2” value is “potent and concentration-dependent antagonism”. Further, the CVC plasma exposures entry in data set [3] is listed as “higher in non-HIV infected healthy volunteer subjects as compared to HIV-infected subjects”.
